Experimental data: PubChem BioAssay (NCI)
Values joined by “and” are separate entries in the source; they are usually repeats but may differ in a detail not shown here. Equal values may be shown once.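 Where inhibition never reached the appropriate level, the endpoint shown equals the highest concentration tested. Otherwise, values were interpolated linearly from a five-concentration, 48-hour dose response in 96-well plates. GI50 = concentration required for 50% inhibition of growth. At the TGI there is no net growth.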

Columns and labels:
Assay in all cases: NCI anticancer screen, dose series, 48 h
[1] = test system: HCC-2998 colon
[2] = test system: NCI-H460 lung
[3] = test system: NCI-H226 lung
[4] = test system: SN12C renal
[5] = test system: U251 CNS
[6] = test system: SF-295 CNS
[7] = test system: UACC-257 melanoma
[8] = test system: SK-MEL-2 melanoma
[9] = test system: ACHN renal
[10] = test system: HCT-116 colon

| SMILES | GI50 [1] | TGI [1] | GI50 [2] | TGI [2] | GI50 [3] | TGI [3] | GI50 [4] | TGI [4] | GI50 [5] | TGI [5] | GI50 [6] | TGI [6] | GI50 [7] | TGI [7] | GI50 [8] | TGI [8] | GI50 [9] | TGI [9] | GI50 [10] | TGI [10] |
| --- | --- | --- | --- | --- | --- | --- | --- | --- | --- | --- | --- | --- | --- | --- | --- | --- | --- | --- | --- | --- |
| O=S(=O)(O)c1ccc(Cl)cc1.[Cd] | > 100 µM | > 100 µM | 4.61 µM | 25.3 µM | > 100 µM | > 100 µM | > 100 µM | > 100 µM | 34 µM | > 100 µM | > 100 µM | > 100 µM | 29.6 µM | 78.8 µM | 19.2 µM | 40.4 µM | > 100 µM | > 100 µM | > 100 µM | > 100 µM |
| O=C(/C=C/c1ccccn1)c1ccccc1O | 1.7 µM | 3.07 µM | 2.28 µM | 5.17 µM | 2.18 µM | 6.23 µM | 2.8 µM | 9.36 µM | 2.02 µM | 5.78 µM | 2.23 µM | 4.67 µM | 2.22 µM | 5.71 µM | 2.31 µM | 4.88 µM | 1.92 µM | 3.51 µM | 1.85 µM | 3.75 µM |
| Cc1ccc(Cl)cc1Nc1nc(C(F)(F)F)ccc1C(=O)N/N=C/c1c(Cl)cccc1Cl | 1.24 µM | 31.5 µM | 0.578 µM | 4.81 µM | 1.1 µM | 4.53 µM | 1.2 µM | 12.2 µM | 0.471 µM | 5.78 µM | 0.556 µM | 3.61 µM | 2.49 µM | 7.69 µM | 1.94 µM | 4.86 µM | 1.08 µM | 6.14 µM | 0.355 µM | 1.58 µM |
| O=C1CSC(=S)N1c1ccc(F)cc1F |  | > 100 µM |  | > 100 µM |  | > 100 µM |  | > 100 µM |  | > 100 µM |  | > 100 µM |  | > 100 µM |  | > 100 µM |  | > 100 µM |  | > 100 µM |
| CC1(C)CC[C@]2(C(=O)n3ccnc3)CC[C@]3(C)[C@H](C(=O)C=C4[C@@]5(C)C=C(C#N)C(=O)C(C)(C)[C@@H]5CC[C@]43C)[C@@H]2C1 | < 0.01 µM | < 0.01 µM | < 0.0179 µM | > 100 µM | < 0.0178 µM | < 0.0499 µM | < 0.0177 µM | 0.0404 µM | < 0.01 µM | 0.0281 µM | 0.0152 µM | 0.0975 µM | 0.0719 µM |  | < 0.0336 µM |  | < 0.0114 µM | < 0.0172 µM | < 0.0112 µM | 0.0273 µM |
| CC1(C)CC(=O)C2=C(C1)NC(SSC1=C(C#N)C(c3ccc(Br)cc3)C3=C(CC(C)(C)CC3=O)N1)=C(C#N)C2c1ccc(Br)cc1 (configuration not stated) | > 150 µg/mL | 150 µg/mL | > 150 µg/mL | > 100 µM and 150 µg/mL | > 150 µg/mL | > 100 µM and 150 µg/mL | 71.2 µg/mL | > 100 µM and 150 µg/mL | > 150 µg/mL | > 100 µM and 150 µg/mL | > 150 µg/mL | > 100 µM and 150 µg/mL | > 150 µg/mL | > 100 µM and 150 µg/mL | > 150 µg/mL | > 100 µM and 150 µg/mL | > 150 µg/mL | > 100 µM and 150 µg/mL | 89.8 µg/mL | > 100 µM and 150 µg/mL |
| COc1ccc2nc3cc(Cl)ccc3c(NCCC(=O)OCC(O)C(O)C(O[C@H](C)C(=O)NC(C)C(=O)NC(CCC(N)=O)C(=O)OCc3ccccc3)C(C=O)NC(C)=O)c2c1 (some centres not stated) |  | 33.6 µM |  | 30.4 µM |  | 37.8 µM |  | 31.4 µM |  | 35.7 µM |  | 34.3 µM |  | > 100 µM |  | 41.8 µM |  | 32.2 µM |  | 31.9 µM |
| O=C(Nc1ccc(Cl)c(Cl)c1)C(=O)Nn1c(=S)[nH]c2ccccc2c1=O |  | > 100 µM |  | > 100 µM |  | > 100 µM |  | > 100 µM |  | > 100 µM |  | > 100 µM |  | > 100 µM |  | > 100 µM |  | > 100 µM |  | > 100 µM |
| O=C(CCc1nnc2s/c(=C\c3ccc4c(c3)OCO4)c(=O)n12)Nc1cc(Cl)ccc1Cl |  | > 100 µM |  | > 100 µM |  | > 100 µM |  | > 100 µM |  | > 100 µM |  | > 100 µM |  | > 100 µM |  | > 100 µM |  | > 100 µM |  | > 78.8 µM |
| CCCCCCCCCCCC1=NC(C)(C)CN1CCO | 1.87 µM | 3.63 µM | 2.88 µM | 7.66 µM | 15.4 µM | 36.2 µM | 9.95 µM | 24.8 µM | 2.8 µM | 9.46 µM | 2.98 µM | 9.85 µM | 3.63 µM | 11.5 µM | 8.15 µM | 22.4 µM | 9.05 µM | 23.5 µM | 1.94 µM | 3.76 µM |
| COc1cc(C(=O)NC2CCN(C)CC2)ccc1Nc1ncc2c(n1)N(C1CCCC1)CC(F)(F)C(=O)N2C | < 0.0166 µM | 2.2 µM | < 0.0152 µM | 11.6 µM | 2.17 µM | 14.3 µM | 0.124 µM | 15 µM | < 0.01 µM | 12.9 µM | 0.0491 µM | 3.51 µM | 0.222 µM | 6.61 µM | 2.23 µM | 6.56 µM | 0.542 µM | 14.9 µM | < 0.0118 µM | 11.2 µM |
| Nc1ccccc1/C=N\Nc1ccccc1 | 3.16 µM | > 100 µM | 2.35 µM | > 100 µM | > 100 µM | > 100 µM | > 100 µM | > 100 µM | > 100 µM | > 100 µM | 1.63 µM | > 100 µM | 51.5 µM | > 100 µM | 65.4 µM | > 100 µM | 3.01 µM | > 100 µM | > 100 µM | > 100 µM |
| COc1ccccc1CNCCCN1C(=O)c2ccc3c4c(ccc(c24)C1=O)C(=O)N(CCCNCCCCNCCCCN)C3=O | 1.8 µM | 6.39 µM | 2.27 µM | 5.8 µM | 1.83 µM | 6.65 µM | 1.99 µM | 5.9 µM | 1.07 µM | 3.25 µM | 2.63 µM | 11 µM | 0.857 µM | 2.22 µM | 1.91 µM | 4.87 µM | 2.82 µM | > 33.9 µM | 0.407 µM |  |
